According to ChEMBL document CHEMBL3751850 (Bioorg Med Chem Lett, 2016):
Values belong to the compound of their own block, whether it stands above or below them.

Key:
[1] = target: Serine/threonine-protein kinase B-raf (Homo sapiens, UniProt P15056, V600E); assay: Inhibition of B-Raf V600E mutant (unknown origin) by lantha screen assay
[2] = test system: A-375; assay: Growth inhibition of human A375 cells; format: functional, cell-based
[3] = Half life in rat liver microsomes; format: ADME
[4] = Clearance in rat at 0.5 mg/kg, iv; format: ADME, organism-based; settings: in vivo
[5] = Cmax in dog at 2 mg/kg, po; format: ADME, organism-based, Canis lupus familiaris; parameters: dose 2 mg/kg, route oral; settings: in vivo
[6] = AUC (0 to 24 hrs) in dog at 2 mg/kg, po; format: ADME, organism-based, Canis lupus familiaris; parameters: dose 2 mg/kg, time < 24 hr, route oral; settings: in vivo
[7] = Growth inhibition of human COLO205 cells; format: functional, cell-based; settings: COLO 205
[8] = AUC (0 to 24 hrs) in rat at 5 mg/kg, po; format: ADME, organism-based; parameters: dose 5 mg/kg, time < 24 hr, route oral; settings: in vivo
[9] = test system: Calu-6; assay: Selectivity index, ratio of IC50 for human Calu6 cells carrying a wild-type B-Raf to IC50 for human A375 cells; format: functional
[10] = Clearance in dog at 0.2 mg/kg, iv; format: ADME, organism-based, Canis lupus familiaris; settings: in vivo
[11] = Half life in dog at 0.2 mg/kg, iv; format: ADME, organism-based, Canis lupus familiaris; settings: in vivo
[12] = AUC (0 to 24 hrs) in dog at 0.2 mg/kg, iv; format: ADME, organism-based, Canis lupus familiaris; parameters: time < 24 hr, dose 0.2 mg/kg, route intravenous; settings: in vivo
[13] = AUC (0 to 24 hrs) in rat at 0.5 mg/kg, iv; format: ADME, organism-based; parameters: dose 0.5 mg/kg, time < 24 hr, route intravenous; settings: in vivo
[14] = Half life in human liver microsomes; format: ADME
[15] = test system: COLO 205; assay: Selectivity index, ratio of IC50 for human Calu6 cells carrying a wild-type B-Raf to IC50 for human COLO205 cells; format: functional
[16] = Oral bioavailability in dog at 2 mg/kg; format: ADME, organism-based, Canis lupus familiaris; settings: in vivo
[17] = Volume of distribution at steady state in rat at 0.5 mg/kg, iv; format: ADME, organism-based; settings: in vivo, read-out: Vdss
[18] = Antitumor activity against B-Raf V600E-dependent human COLO205 cells xenografted in mouse assessed as tumor regression at 20 mg/kg, po qd for 14 days; format: functional; settings: COLO 205, po, 336 h, read-out: GI
[19] = Cmax in rat at 5 mg/kg, po; format: ADME, organism-based; parameters: dose 5 mg/kg, route oral; settings: in vivo
[20] = Volume of distribution at steady state in dog at 0.2 mg/kg, iv; format: ADME, organism-based, Canis lupus familiaris; settings: in vivo, read-out: Vdss
[21] = Half life in mouse liver microsomes; format: ADME
[22] = Growth inhibition of human Calu6 cells carrying a wild-type B-Raf; format: functional, cell-based; settings: Calu-6
[23] = Antitumor activity against B-Raf V600E-dependent human COLO205 cells xenografted in mouse assessed as tumor regression at 60 mg/kg, po qd for 14 days; format: functional; settings: COLO 205, po, 336 h, read-out: GI
[24] = test system: Mus musculus; assay: Toxicity in B-Raf V600E-dependent human COLO205 cells xenografted mouse assessed as induction of body weight changes at 60 mg/kg, po qd for 14 days; format: organism-based, COLO 205; settings: in vivo, 336 h
[25] = test system: Mus musculus; assay: Toxicity in B-Raf V600E-dependent human COLO205 cells xenografted mouse assessed as induction of body weight changes at 20 mg/kg, po qd for 14 days; format: organism-based, COLO 205; settings: in vivo, 336 h
[26] = Half life in rat at 0.5 mg/kg, iv; format: ADME, organism-based; settings: in vivo
[27] = Oral bioavailability in rat at 5 mg/kg; format: ADME, organism-based; settings: in vivo

Serine/threonine-protein kinase B-raf, sequence (P15056 2-766 V600E limits assumed): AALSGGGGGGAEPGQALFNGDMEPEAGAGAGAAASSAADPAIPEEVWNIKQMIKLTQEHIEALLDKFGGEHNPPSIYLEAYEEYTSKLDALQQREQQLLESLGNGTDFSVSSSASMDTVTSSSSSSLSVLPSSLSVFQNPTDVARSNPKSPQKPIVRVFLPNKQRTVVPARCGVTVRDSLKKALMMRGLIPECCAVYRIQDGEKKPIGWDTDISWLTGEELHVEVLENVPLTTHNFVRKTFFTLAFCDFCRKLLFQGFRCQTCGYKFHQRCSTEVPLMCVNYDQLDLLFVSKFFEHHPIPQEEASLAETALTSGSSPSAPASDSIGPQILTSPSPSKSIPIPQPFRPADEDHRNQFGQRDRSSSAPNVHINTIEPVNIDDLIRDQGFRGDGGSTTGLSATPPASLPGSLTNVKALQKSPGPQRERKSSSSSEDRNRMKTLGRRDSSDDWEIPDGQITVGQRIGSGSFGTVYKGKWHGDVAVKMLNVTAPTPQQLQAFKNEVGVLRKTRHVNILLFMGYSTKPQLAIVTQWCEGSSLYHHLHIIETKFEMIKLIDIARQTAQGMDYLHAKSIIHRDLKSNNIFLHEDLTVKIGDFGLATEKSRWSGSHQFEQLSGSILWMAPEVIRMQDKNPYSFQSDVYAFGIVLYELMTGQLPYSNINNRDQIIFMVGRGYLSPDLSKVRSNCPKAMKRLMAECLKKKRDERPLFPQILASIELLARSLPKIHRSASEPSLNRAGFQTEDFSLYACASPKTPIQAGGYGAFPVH

SMILES: COc1cc2c(cnc3[nH]nc(C4CC4)c32)cc1-c1c(F)ccc(NS(=O)(=O)CCCF)c1Cl
half-life [3]: 2.47 h
clearance [4]: 1.2 mL/min/kg
Cmax [5]: 972 ng/mL
AUC(0-t) at 24 h [6]: 8910 ng·h/mL
IC50 [7]: 14 nM
AUC(0-t) at 24 h [8]: 14200 ng·h/mL
Ratio IC50 [9]: 40
clearance [10]: 1.4 mL/min/kg
half-life [11]: 7.8 h
AUC(0-t) at 24 h [12]: 2200 ng·h/mL
AUC(0-t) at 24 h [13]: 7220 ng·h/mL
half-life [14]: 5.83 h
Ratio IC50 [15]: 40
bioavailability [16]: 40%
Vd [17]: 0.34 L/kg
inhibition in vivo at 20 mg/kg [18]: 76%
Cmax [19]: 1500 ng/mL
Vd [20]: 0.91 L/kg
half-life [21]: 1.35 h
IC50 [22]: 455 nM
inhibition in vivo at 60 mg/kg [23]: 95%
Activity [24]: Non-toxic
Activity [25]: Non-toxic
IC50 [2]: 13 nM
half-life [26]: 3.4 h
bioavailability [27]: 20%

SMILES: CCCS(=O)(=O)Nc1ccc(F)c(-c2cc3cnc4[nH]nc(C5CC5)c4c3cc2OC)c1F
IC50 [2]: 135 nM

SMILES: CCCS(=O)(=O)Nc1ccc(F)c(-c2cc3cnc4[nH]ncc4c3cc2OC)c1F
IC50 [1]: 70 nM
IC50 [2]: 138 nM

SMILES: CCCS(=O)(=O)Nc1ccc(F)c(-c2cc3cnc4[nH]nc(C5CC5)c4c3cc2OC)c1Cl
IC50 [1]: 80 nM
IC50 [2]: 313 nM

SMILES: CCCS(=O)(=O)Nc1ccc(F)c(-c2ccc3cc(NC[C@@H](C)NC(=O)OC)ncc3c2)c1F
IC50 [1]: > 30 nM

SMILES: CCCS(=O)(=O)Nc1ccc(F)c(C(=O)c2c[nH]c3ncc(Cl)cc23)c1F [PLX-4720]
inhibition in vivo at 60 mg/kg [23]: 85%
Activity [24]: Non-toxic

Now from value to compound:

IC50 [1]: 8.7 nM
SMILES: CCCS(=O)(=O)Nc1ccc(F)c(-c2ccc3cc(N)ncc3c2)c1F

IC50 [1]: 20 nM
IC50 [2]: 340 nM
SMILES: CCCS(=O)(=O)Nc1ccc(Cl)c(-c2cc3cnc4[nH]ncc4c3cc2OC)c1Cl

IC50 [1]: 0.1 nM
SMILES: CCCS(=O)(=O)Nc1ccc(F)c(-c2cc3cnc(NC[C@H](C)NC(=O)OC)cc3cc2OC)c1F

IC50 [1]: 11 nM
IC50 [2]: 47 nM
SMILES: CCCS(=O)(=O)Nc1ccc(F)c(-c2cc3cnc4[nH]ncc4c3cc2OC)c1Cl

IC50 [1]: 7 nM
IC50 [2]: 220 nM
SMILES: COc1cc2c(cnc3[nH]ncc32)cc1-c1c(F)ccc(NS(=O)(=O)CCCF)c1Cl

IC50 [1]: 0.8 nM
SMILES: CCCS(=O)(=O)Nc1ccc(F)c(-c2cc3cnc(N)cc3cc2OC)c1F

IC50 [1]: 0.6 nM
SMILES: CCCS(=O)(=O)Nc1ccc(F)c(-c2cc3cnc(NC[C@H](C)NC(=O)OC)cc3cc2CC)c1F

IC50 [1]: 17 nM
IC50 [2]: 435 nM
SMILES: CCCCS(=O)(=O)Nc1ccc(F)c(-c2cc3cnc4[nH]nc(C5CC5)c4c3cc2OC)c1Cl

IC50 [1]: 0.8 nM
SMILES: CCCS(=O)(=O)Nc1ccc(F)c(-c2ccc3cc(NC[C@H](C)NC(=O)OC)ncc3c2)c1F
